Test results: patent EP3454861B1, “BENZOXAZINE OR QUINAZOLINE DERIVATIVES FOR USE IN THE TREATMENT OF ALZHEIMER'S DISEASE” (Biocodex, priority 2016, dated 2017)

Assays:
GFAP = assay: ELISA of GFAP in mouse hippocampus after Aβ25-35; assay type: in vivo, souris
Text: (§1) Le 1^er jour : une version « mélangée » (scrambled) du peptide amyloïde β25-35 (Sc.Aβ, témoin négatif) ou le peptide amyloïde β25-35 (Aβ25-35) est injecté par voie intra-cérébroventriculaire (ICV) (le peptide Aβ25-35 provoque l'intoxication cellulaire). Entre le 1^er jour et le 10^ème jour, les traitements sont administrés une fois par jour par voie intrapéritonéale (IP).
(§2) A la fin de la session de rétention d'évitement passif, le 10^ème jour, les animaux sont sacrifiés par décapitation. L'hippocampe et le cortex frontal sont disséqués et congelés dans l'azote liquide. L'hippocampe est utilisé pour mesurer le taux de peroxydation lipidique à l'aide d'une méthode colorimétrique et pour évaluer les taux de 4 marqueurs biochimiques par des tests ELISA. Le cortex est conservé à -80°C en attente d'analyses supplémentaires. Les plasmas sont également conservés en attente d'analyses supplémentaires. Les échantillons biologiques sont jetés après 3 mois.
(§3) Pour tous les dosages, les […] sont homogénéisés, après décongélation, dans un tampon Tris (Tris 50 mM, 150 mM NaCl, pH 7,5) et traités par ultrasons pendant 20 secondes. […] Pour chaque dosage, l'absorbance est lue à 450 nm et la concentration est calculée en utilisant la courbe standard. Les résultats sont exprimés en pg ou ng de marqueur par mg de tissu et en pourcentage de solution Sc.Aβ + véhicule. 6 échantillons par groupe (n = 36 kits ELISA) sont dosés en double.

neurones corticaux = assay: Survival of cortical neurons after Aβ1-42 intoxication (MAP-2 immunostaining); assay type: cell-based, rats; conditions: 1 h pre-incubation, Aβ1-42 10 µM, 24 h
Experimental: Des neurones corticaux de rats sont mis en culture comme dans la méthode décrite par Singer (1999) J. Neurosci. 19:2455-2463. Des rats femelles enceintes de 15 jours sont tuées par dislocation des cervicales (Rats Wistar, Janvier) et le fœtus est retiré de l'utérus. Les cortex sont prélevés et placés dans un milieu glacé de Leibovitz (L15, Panbiotech, Réf : P04-27055, lot : 9310614) contenant 2% de pénicilline (10 000 U/ml) et de streptomycine (10 mg/ml) (PS, Panbiotec, Réf : P06-07100, lot : 48101114) et 1% de sérum-albumine bovine (BSA, Panbiotech, Réf : P06-1391100, lot : H140603). Les cortex sont dissociés par trypsination (0,05% Panbiotech, Réf : P10-023100, lot : 5890314) pendant 20 minutes à 37°C. La réaction est stoppée par addition d'un milieu Eagle modifié de Dulbecco (DMEM, Panbiotech, réf P04-03600, lot : 9670913) contenant de la DNase I grade Il (0,1 mg/ml Panbiotech, Réf : P60-37780100, lot : H140508) et 10 % de sérum de veau fœtal (FCS, Invitrogen, Réf : 10270 à 098, lot : 41Q4120K). Les cellules sont dissociées mécaniquement par 3 passages à travers une pipette de 10 ml. Les cellules sont ensuite centrifugées à 515 g pendant 10 minutes à 4°C. […]

Caspase-3 = assay: ELISA of Caspase-3 in mouse hippocampus after Aβ25-35; assay type: in vivo, souris
Text: as §1, §2, §3

[1] = Aβ25-35/Etifoxine 12.5 mg/kg IP

CCNC1=Nc2ccc(Cl)cc2C(C)(c2ccccc2)O1 (centres unmarked) [Etifoxine, chlorhydratede 6-chloro-2-éthylamino-4-méthyl-4-phényl-4H-[3,1]benzoxazine]
Expression GFAP (GFAP; [1]): 160,4 ± 10,2 % de Sc.Aβ/V
Expression GFAP (GFAP; Aβ25-35/Etifoxine 25 mg/kg IP): 131,7 ± 4,3 % de Sc.Aβ/V
Expression GFAP (GFAP; Aβ25-35/Etifoxine 50 mg/kg IP): 129,8 ± 2,7 % de Sc.Aβ/V
survie des neurones (neurones corticaux; étifoxine 3 µM, p <0,05): restaure de manière significative la survie des neurones
survie des neurones (neurones corticaux; étifoxine 10 µM, p <0,01): restaure de manière significative la survie des neurones
Expression CASP-3 (Caspase-3; [1]): 136,8 ± 7,2 % de Sc.Aβ/V
Expression CASP-3 (Caspase-3; Aβ25-35/Etifoxine 25 mg/kg IP): 127,3 ± 10,8 % de Sc.Aβ/V
Expression CASP-3 (Caspase-3; Aβ25-35/Etifoxine 50 mg/kg IP): 109,9 ± 5,6 % de Sc.Aβ/V
